Results as given in paper PMC7479175, “Selection of Potent Inhibitors of Soluble Epoxide Hydrolase for Usage in Veterinary Medicine” (Frontiers in Veterinary Science, 2020).

Legend:
Dog sEH [1] = molecular target: T1, Dog sEH (Canis lupus familiaris, UniProt A0A8I3NJL8); test: Secondary screen (kinetic mode), PHOME substrate; format: biochemical; details: [I] = 100 nM, secondary kinetic mode screening
T1 sequence (A0A8I3NJL8 1-556): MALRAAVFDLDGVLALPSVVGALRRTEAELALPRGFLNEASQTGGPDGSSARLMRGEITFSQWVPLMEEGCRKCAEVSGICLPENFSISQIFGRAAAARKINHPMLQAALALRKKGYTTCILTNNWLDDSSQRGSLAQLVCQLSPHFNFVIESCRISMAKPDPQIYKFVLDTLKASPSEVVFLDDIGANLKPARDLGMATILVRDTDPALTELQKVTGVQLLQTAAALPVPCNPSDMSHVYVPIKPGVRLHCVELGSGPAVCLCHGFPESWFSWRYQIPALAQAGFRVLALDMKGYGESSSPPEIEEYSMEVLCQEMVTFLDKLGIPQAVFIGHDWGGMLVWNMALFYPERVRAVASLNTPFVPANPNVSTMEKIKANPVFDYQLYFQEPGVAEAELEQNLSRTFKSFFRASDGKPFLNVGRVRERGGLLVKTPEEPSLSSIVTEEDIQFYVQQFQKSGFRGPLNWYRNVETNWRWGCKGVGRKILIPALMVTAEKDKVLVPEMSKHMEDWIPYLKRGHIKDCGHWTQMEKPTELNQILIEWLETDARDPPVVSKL

[2] = molecular target: sEH activity from liver cytosol of Cow (Bos taurus, UniProt Q17QK4); test: sEH inhibition potency (IC50), radioactive assay with [3H]t-DPPO, liver cytosol; format: biochemical; details: [3H]t-DPPO ([S]final = 5 μM) as substrate
Sequence of sEH activity from liver cytosol of Cow (Q17QK4 entry or part of it): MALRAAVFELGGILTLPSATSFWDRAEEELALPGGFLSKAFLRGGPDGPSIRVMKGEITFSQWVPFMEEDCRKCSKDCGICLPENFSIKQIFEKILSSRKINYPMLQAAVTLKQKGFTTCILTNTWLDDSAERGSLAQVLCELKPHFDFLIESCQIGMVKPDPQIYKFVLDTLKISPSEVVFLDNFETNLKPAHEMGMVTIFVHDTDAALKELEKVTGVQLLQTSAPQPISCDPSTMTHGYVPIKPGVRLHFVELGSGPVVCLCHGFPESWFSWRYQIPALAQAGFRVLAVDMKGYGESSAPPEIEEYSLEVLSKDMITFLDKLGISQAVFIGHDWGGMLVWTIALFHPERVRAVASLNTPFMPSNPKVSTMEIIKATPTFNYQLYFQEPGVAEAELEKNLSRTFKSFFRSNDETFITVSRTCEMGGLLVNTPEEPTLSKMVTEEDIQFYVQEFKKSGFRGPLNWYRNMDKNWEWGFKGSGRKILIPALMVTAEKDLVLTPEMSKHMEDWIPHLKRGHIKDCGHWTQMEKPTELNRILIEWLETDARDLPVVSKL
Excerpt: (§1) Fresh liver tissues samples (5–30 g) were collected promptly after death from healthy adult cat, dog and horse euthanized for reasons unrelated to this study, and whose bodies were given to science by the owners in line with federal regulations and protocol approved by the Institutional Animal Care and Use Committee at University of California Davis. Similarly, tissues from the other animals tested herein were collected from healthy animals immediately after being slaughter at the university abattoir. Because no animals were directly used or killed for this study, sample collections were exempted from approval by the Institutional Animal Care and Use Committee of the University of California Davis and Michigan State University. […] The tissues were flash-frozen in liquid nitrogen following removal, and then kept at −80°C until used. After thawing on ice, the samples were homogenized in chilled sodium phosphate buffer (20 mM pH 7.4) containing 5 mM EDTA, 1 mM DTT and 1 mM PMSF (tissue weight:buffer volume ratio 1:4). These homogenates were centrifuged at 100,000 g for 60 min at 4°C. The supernatant (the cytosolic fraction) was separated from the pellet, aliquoted and flash frozen in liquid nitrogen, then kept frozen at −80°C until usage.
(§2) The IC50 values reported herein were determined using either a fluorescent based assay (CMNPC as substrate) for purified enzyme preparations or a radioactive based assay ([^3H]t-DPPO as substrate) for crude enzyme preparations ([20]). The fluorescent assay was used with the purified proteins. […] The substrate (CMNPC) was then added ([S]final = 5 μM). […] The radioactive […] assay was used with the liver crude extracts. Extracts were incubated with inhibitors ([I]final = 1–1,000 nM) at 30° C for 5 min in sodium phosphate buffer (pH 7.4) containing 0.1 mg/mL of BSA and 1% of DMSO, prior to substrate introduction ([^3H]t-DPPO [S]final: 50 μM; ~12,000 dpm/assay). The enzymes were incubated at 30°C for 10 min, and the reaction was quenched by the addition of 60 μL methanol and 200 μL isooctane, which extracts the remaining epoxide from the aqueous phase. […] Assays were performed in triplicate.

[3] = molecular target: T2, sEH activity from liver cytosol of Hamster (Mesocricetus auratus, UniProt A0A1U7QV09); test: as above; format: biochemical; details: [3H]t-DPPO ([S]final = 5 μM) as substrate
T2 sequence (A0A1U7QV09 1-554): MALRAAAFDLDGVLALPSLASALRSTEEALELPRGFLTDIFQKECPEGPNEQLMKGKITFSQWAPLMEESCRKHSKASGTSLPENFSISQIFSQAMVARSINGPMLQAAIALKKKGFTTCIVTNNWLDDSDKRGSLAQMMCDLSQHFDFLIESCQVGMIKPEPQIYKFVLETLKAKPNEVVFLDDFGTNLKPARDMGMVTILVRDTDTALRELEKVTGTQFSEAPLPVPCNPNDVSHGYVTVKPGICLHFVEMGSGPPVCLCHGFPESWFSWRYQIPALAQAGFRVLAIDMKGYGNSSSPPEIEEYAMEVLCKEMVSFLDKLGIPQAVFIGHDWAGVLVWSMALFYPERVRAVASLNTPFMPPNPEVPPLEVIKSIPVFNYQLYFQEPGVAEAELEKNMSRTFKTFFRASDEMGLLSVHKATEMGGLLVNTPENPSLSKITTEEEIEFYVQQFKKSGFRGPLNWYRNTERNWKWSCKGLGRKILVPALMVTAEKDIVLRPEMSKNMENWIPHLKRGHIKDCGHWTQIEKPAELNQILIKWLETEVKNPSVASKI
Excerpt: as §1, §2

Dog sEH [4] = molecular target: T1, Dog sEH; test: Primary screen (end point) of the sEH inhibitor library, PHOME substrate; format: biochemical; details: [I] = 100 nM, primary end-point screening
Procedure: (§3) Primary screening of the library was performed with an inhibitor concentration of 100 nM using PHOME as substrate ([22]). […] The plates were then mixed and incubated at 30°C for 5 min. Across each plate, 30 μL of the working substrate solution (270 μL of 5 mM PHOME solution in DMSO diluted with 3,680 μL of buffer) were added quickly to yield [S]final: 50 μM. Each plate was further incubated at room temperature (horse sEH: 60 min; cat sEH: 45 min; dog sEH: 30 min).

Horse sEH [5] = molecular target: T3, Horse sEH (Equus caballus, UniProt F7C407); test: as above; format: biochemical; details: [I] = 100 nM, primary end-point screening
T3 sequence (F7C407 entry or part of it): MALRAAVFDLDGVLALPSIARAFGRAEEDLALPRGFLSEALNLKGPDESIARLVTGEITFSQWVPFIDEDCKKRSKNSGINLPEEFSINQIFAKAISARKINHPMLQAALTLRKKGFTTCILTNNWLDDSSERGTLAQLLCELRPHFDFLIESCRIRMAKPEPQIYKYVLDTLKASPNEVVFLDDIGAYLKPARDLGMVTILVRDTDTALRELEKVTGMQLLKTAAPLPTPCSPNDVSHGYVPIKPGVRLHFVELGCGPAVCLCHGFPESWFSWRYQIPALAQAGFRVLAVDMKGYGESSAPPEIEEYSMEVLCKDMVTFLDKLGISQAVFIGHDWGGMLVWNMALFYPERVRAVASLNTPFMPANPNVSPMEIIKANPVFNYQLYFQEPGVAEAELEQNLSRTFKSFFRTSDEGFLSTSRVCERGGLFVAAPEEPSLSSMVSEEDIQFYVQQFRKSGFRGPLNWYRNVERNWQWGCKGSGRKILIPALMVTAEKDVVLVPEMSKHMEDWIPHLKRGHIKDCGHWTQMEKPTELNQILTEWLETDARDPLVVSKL
Procedure: as §3

Horse sEH [6] = molecular target: T3, Horse sEH; test: Secondary screen (kinetic mode), PHOME substrate; format: biochemical; details: [I] = 100 nM, secondary kinetic mode screening
Microsomal stability [7] = format: in vitro ADME, horse; details: 1 μM inhibitor, microsomes 1 mg/mL, 37°C, 30 min, compound remaining, average ± SD (n = 3)
Procedure: (§4) The stability of the sEH inhibitors was determined using liver microsomes as described ([24]). […] After 30 min at 37°C, the reaction was stopped by the addition of one volume of methanol containing CUDA (200 nM) as surrogate. The amount of remaining inhibitor was determined by LC/MS/MS. The stability is reported as a percentage of compound remaining after 30 min in these conditions.
(§5) Mass spectrometry analyses were performed using a Waters Quattro Premier triple quadrupole tandem mass spectrometer (Micromass, Manchester, UK) interfaced to an electrospray ionization (ESI) source. The MS was coupled with a Waters Acquity UPLC (Waters, Milford, MA, USA). A Varian Pursuit5 C18 RP HPLC column (150 mm × 2.1 mm, particle size 5 μm) was used to separate the analytes. […] The source and the desolvation temperatures were set at 120 and 300°C, respectively. […] Dwell time was set to 0.1 s.

Microsomal stability [8] = format: in vitro ADME, cat
Procedure: as §4, §5

Microsomal stability [9] = format: in vitro ADME, dog; details: 1 μM inhibitor, microsomes 1 mg/mL, 37°C, 30 min, compound remaining, average ± SD (n = 3)
Procedure: as §4, §5

sEH = details: non-selective pan-esterase inhibitor used at 100 μM; ref [18]; cited from earlier work
Cat sEH [10] = molecular target: T4, Cat sEH (Felis catus, UniProt A0ABI7ZL20); test: Secondary screen (kinetic mode), PHOME substrate; format: biochemical; details: read-out: Cat sEH Inhibition (%) S.
T4 sequence (A0ABI7ZL20 entry or part of it): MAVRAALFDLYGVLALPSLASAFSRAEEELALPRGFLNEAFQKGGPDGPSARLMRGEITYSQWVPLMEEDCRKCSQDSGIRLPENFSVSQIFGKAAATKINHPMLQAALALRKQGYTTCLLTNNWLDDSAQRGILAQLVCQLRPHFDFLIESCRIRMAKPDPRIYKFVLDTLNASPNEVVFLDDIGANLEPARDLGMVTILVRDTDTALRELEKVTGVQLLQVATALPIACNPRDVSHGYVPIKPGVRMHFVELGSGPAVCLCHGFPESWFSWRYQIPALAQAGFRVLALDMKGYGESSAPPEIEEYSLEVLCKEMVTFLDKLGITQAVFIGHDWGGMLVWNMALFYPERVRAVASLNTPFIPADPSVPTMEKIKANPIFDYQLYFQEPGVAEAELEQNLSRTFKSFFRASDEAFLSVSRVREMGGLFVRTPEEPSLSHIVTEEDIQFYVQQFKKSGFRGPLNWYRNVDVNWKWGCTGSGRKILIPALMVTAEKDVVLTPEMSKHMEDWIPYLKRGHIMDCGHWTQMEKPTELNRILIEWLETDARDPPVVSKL

Cat sEH [11] = molecular target: T4, Cat sEH; test: Primary screen (end point) of the sEH inhibitor library, PHOME substrate; format: biochemical; details: read-out: Cat sEH Inhibition (%) P.
Procedure: as §3

Which inhibition at 0.1 µM (Dog sEH [1]; read-out: Dog sEH Inhibition (%) S.) does the source give for `O=C(O)CCCCCCCCCCCNC(=O)NC12CC3CC(CC(C3)C1)C2` [compound 700] here?
The inhibition at 0.1 µM was 80%.

What about the IC50 [2] of the same molecule?
Its IC50 is 6 nM.

What about the IC50 [3] of the same molecule?
The IC50 was 5 nM.

What about the inhibition at 0.1 µM (Dog sEH [4]; read-out: Dog sEH Inhibition (%) P.) of the same molecule?
Its inhibition at 0.1 µM is 92%.

What about the inhibition at 0.1 µM (Horse sEH [5]; read-out: Horse sEH Inhibition (%) P.) of the same molecule?
The inhibition at 0.1 µM was 94%.

What about the inhibition at 0.1 µM (Horse sEH [6]; read-out: Horse sEH Inhibition (%) S.) of the same molecule?
Its inhibition at 0.1 µM is 85%.

What about the “Stability (% without microsomes) Horse liver microsomes NADPH +” value (Microsomal stability [7]; with NADPH) of the same molecule?
Its value is 96 ± 9%.

What about the “Stability (% without microsomes) Horse liver microsomes NADPH –” value (Microsomal stability [7]; without NADPH) of the same molecule?
The value was 114 ± 15%.

And the “Stability (% without microsomes) Cat liver microsomes NADPH +” value (Microsomal stability [8]; 1 μM inhibitor, microsomes 1 mg/mL, with NADPH, 37°C, 30 min, compound remaining, average ± SD (n = 3))?
The value was 28 ± 3%.

And the “Stability (% without microsomes) Cat liver microsomes NADPH –” value (Microsomal stability [8]; 1 μM inhibitor, microsomes 1 mg/mL, without NADPH, 37°C, 30 min, compound remaining, average ± SD (n = 3))?
Its value is 105 ± 11%.

And the “metabolism in cat liver microsomes (in words)” value (Microsomal stability [8]; in the presence of NADPH)?
The value was “quickly transformed”.

What about the “Stability (% without microsomes) Dog liver microsomes NADPH +” value (Microsomal stability [9]; with NADPH) of the same molecule?
Its value is 66 ± 9%.

And the “Stability (% without microsomes) Dog liver microsomes NADPH –” value (Microsomal stability [9]; without NADPH)?
The value was 94 ± 6%.

Which “inhibition of sEH” value (sEH) does the source give for `CCOP(=O)(OCC)Oc1ccc([N+](=O)[O-])cc1` [Paraoxon] here?
Its value is “does not inhibit sEH”.

Which results are given for `CC1CCCCC1NC(=O)Nc1ccccc1` (centres unmarked) [Siduron]?
Dog sEH Inhibition (%) S. (Dog sEH [1]): 43%; inhibition at 0.1 µM (Cat sEH [10]): 77%; Dog sEH Inhibition (%) P. (Dog sEH [4]): < 90%; Horse sEH Inhibition (%) P. (Horse sEH [5]): 92%; inhibition at 0.1 µM (Cat sEH [11]): 93%; Horse sEH Inhibition (%) S. (Horse sEH [6]): 81%
